Drawing on patent publication US20250145665A1, “MACROCYCLIC PEPTIDES USEFUL AS MODULATORS OF TNF ALPHA” (Bristol-Myers Squibb Company, priority 2023, published 2025), this text covers IC50 for 17 compounds.

Each structure is given as a SMILES string. Starred links: 1 amine or outer side, 2 acyl side, 3 side chain; linkers in the order of their positions; H or OH if unused. Positions of bridges follow the written chain, without caps; N, C: chain ends. Non-standard residues stand in square brackets, D forms with d. Residues, ends and D or L forms follow the SMILES beside them. Ala(morpholin-4-yl) = N[C@@H](CN1CCOCC1)C(=O)O; Phe(3-CONH2) = NC(=O)c1cccc(C[C@H](N)C(=O)O)c1; X59 = O=C([C@H](Cc1c(F)cc(F)cc1F)N[*:1])[*:2]; Phe(4-CH2NH2) = NCc1ccc(C[C@H](N)C(=O)O)cc1; Bip = N[C@@H](Cc1ccc(-c2ccccc2)cc1)C(=O)O; Phe(4-F) = N[C@@H](Cc1ccc(F)cc1)C(=O)O; Val(3-OH) = CC(C)(O)[C@H](N)C(=O)O; h4Pal = N[C@@H](CCc1ccncc1)C(=O)O; 2Pal = N[C@@H](Cc1ccccn1)C(=O)O; 3Pal = N[C@@H](Cc1cccnc1)C(=O)O; 4Pal = N[C@@H](Cc1ccncc1)C(=O)O; hLeu = CC(C)CC[C@H](N)C(=O)O; Hpra = C#CCC[C@H](N)C(=O)O; Sar = CNCC(=O)O

In one test the target is TNFα (Homo sapiens, UniProt P01375). Put plainly: TNF-Induced HEK-Blue Assay.
Sequence of TNFα (P01375 77-233 limits assumed): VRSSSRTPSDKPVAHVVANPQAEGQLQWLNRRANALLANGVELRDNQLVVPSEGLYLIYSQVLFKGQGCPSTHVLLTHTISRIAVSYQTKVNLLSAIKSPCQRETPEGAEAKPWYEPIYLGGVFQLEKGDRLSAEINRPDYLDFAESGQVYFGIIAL
Conditions: not given
It counts as cell-based.
For `CC[C@H](C)[C@@H]1NC(=O)[C@@H]2CCCN2C(=O)[C@H](C(C)C)NC(=O)[C@H](CCCNC(=N)N)NC(=O)[C@H](CC(=O)O)NC(=O)[C@@H]2CCCN2C(=O)CN(C)C(=O)[C@H](Cc2ccc(-c3ccccc3)cc2)NC(=O)[C@H](Cc2ccc(-c3ccccc3)cc2)NC(=O)[C@H](Cc2ccccc2)NC(=O)CSC[C@@H](C(=O)NCC(N)=O)NC(=O)[C@H](CC(C)C)NC(=O)[C@H](CCCNC(=N)N)NC1=O` [Example 20] ({CH2CO}-F[Bip][Bip][Sar]PDRVPIRLCG-NH2; thioether N-13), the IC50 (commonly the concentration needed to halve the response being measured) is 200 to 2000 nM.

Staying with this test, now noted: HEK-Blue-CD40L cells, NF-kB-driven secreted alkaline phosphatase reporter; TNFα 0.5 ng/ml; 18 h; read-out: TNF induced HEK-Blue assay IC50 value.
For the compound `CC(C)C[C@@H]1NC(=O)[C@H](CCCNC(=N)N)NC(=O)[C@H](CC(C)C)NC(=O)[C@@H]2CCCN2C(=O)[C@H](C(C)C)NC(=O)[C@H](CCCNC(=N)N)NC(=O)[C@H](CC(=O)O)NC(=O)[C@@H]2CCCN2C(=O)CN(C)C(=O)[C@H](Cc2ccc(-c3ccccc3)cc2)NC(=O)[C@H](Cc2ccc(-c3ccccc3)cc2)NC(=O)[C@H](Cc2ccccc2)NC(=O)CSC[C@@H](C(=O)NCC(N)=O)NC1=O` [Example 21] ({CH2CO}-F[Bip][Bip][Sar]PDRVPLRLCG-NH2; thioether N-13), the IC50 was in the range of 200 to 2000 nM.
Still for that read-out and setting: next, `CC(C)C[C@@H]1NC(=O)[C@H](CCCNC(=N)N)NC(=O)[C@H](C(C)C)NC(=O)[C@@H]2CCCN2C(=O)[C@H](Cc2ccc(CN)cc2)NC(=O)[C@H](CCCNC(=N)N)NC(=O)[C@H](CC(=O)O)NC(=O)[C@@H]2CCCN2C(=O)CN(C)C(=O)[C@H](Cc2ccc(-c3ccccc3)cc2)NC(=O)[C@H](Cc2ccc(-c3ccccc3)cc2)NC(=O)[C@H](Cc2ccccc2)NC(=O)CSC[C@@H](C(=O)NCC(N)=O)NC1=O` [Example 22] ({CH2CO}-F[Bip][Bip][Sar]PDR[Phe(4-CH2NH2)]PVRLCG-NH2; thioether N-13): 200 to 2000 nM; `CC(C)C[C@@H]1NC(=O)[C@H](CCCNC(=N)N)NC(=O)[C@H](C(C)C)NC(=O)[C@@H]2CCCN2C(=O)[C@H](Cc2ccc(F)cc2)NC(=O)[C@H](CCCNC(=N)N)NC(=O)[C@H](CC(=O)O)NC(=O)[C@@H]2CCCN2C(=O)CN(C)C(=O)[C@H](Cc2ccc(-c3ccccc3)cc2)NC(=O)[C@H](Cc2ccc(-c3ccccc3)cc2)NC(=O)[C@H](Cc2ccccc2)NC(=O)CSC[C@@H](C(=O)NCC(N)=O)NC1=O` [Example 23] ({CH2CO}-F[Bip][Bip][Sar]PDR[Phe(4-F)]PVRLCG-NH2; thioether N-13): 200 to 2000 nM; `CC(C)C[C@@H]1NC(=O)[C@H](CCCNC(=N)N)NC(=O)[C@H](C(C)C)NC(=O)[C@@H]2CCCN2C(=O)[C@H](CCc2ccncc2)NC(=O)[C@H](CCCNC(=N)N)NC(=O)[C@H](CC(=O)O)NC(=O)[C@@H]2CCCN2C(=O)CN(C)C(=O)[C@H](Cc2ccc(-c3ccccc3)cc2)NC(=O)[C@H](Cc2ccc(-c3ccccc3)cc2)NC(=O)[C@H](Cc2ccccc2)NC(=O)CSC[C@@H](C(=O)NCC(N)=O)NC1=O` [Example 24] ({CH2CO}-F[Bip][Bip][Sar]PDR[h4Pal]PVRLCG-NH2; thioether N-13): 200 to 2000 nM.
The same measure, in the same setting: next, `CC(C)C[C@@H]1NC(=O)[C@H](CCCNC(=N)N)NC(=O)[C@H](C(C)C)NC(=O)[C@@H]2CCCN2C(=O)[C@H](Cc2ccncc2)NC(=O)[C@H](CCCNC(=N)N)NC(=O)[C@H](CC(=O)O)NC(=O)[C@@H]2CCCN2C(=O)CN(C)C(=O)[C@H](Cc2ccc(-c3ccccc3)cc2)NC(=O)[C@H](Cc2ccc(-c3ccccc3)cc2)NC(=O)[C@H](Cc2ccccc2)NC(=O)CSC[C@@H](C(=O)NCC(N)=O)NC1=O` [Example 25] ({CH2CO}-F[Bip][Bip][Sar]PDR[4Pal]PVRLCG-NH2; thioether N-13): 200 to 2000 nM; `CC(C)C[C@@H]1NC(=O)[C@H](CCCNC(=N)N)NC(=O)[C@H](C(C)C)NC(=O)[C@@H]2CCCN2C(=O)[C@H](Cc2cccnc2)NC(=O)[C@H](CCCNC(=N)N)NC(=O)[C@H](CC(=O)O)NC(=O)[C@@H]2CCCN2C(=O)CN(C)C(=O)[C@H](Cc2ccc(-c3ccccc3)cc2)NC(=O)[C@H](Cc2ccc(-c3ccccc3)cc2)NC(=O)[C@H](Cc2ccccc2)NC(=O)CSC[C@@H](C(=O)NCC(N)=O)NC1=O` [Example 26] ({CH2CO}-F[Bip][Bip][Sar]PDR[3Pal]PVRLCG-NH2; thioether N-13): 200 to 2000 nM; `CC(C)C[C@@H]1NC(=O)[C@H](CCCNC(=N)N)NC(=O)[C@H](C(C)C)NC(=O)[C@@H]2CCCN2C(=O)[C@H](C(C)C)NC(=O)[C@H](CCCNC(=N)N)NC(=O)[C@H](CC(=O)O)NC(=O)[C@@H]2CCCN2C(=O)CN(C)C(=O)[C@H](Cc2ccc(-c3ccccc3)cc2)NC(=O)[C@H](Cc2ccc(-c3ccccc3)cc2)NC(=O)[C@H](C(C)(C)O)NC(=O)CSC[C@@H](C(=O)NCC(N)=O)NC1=O` [Example 27] ({CH2CO}-[Val(3-OH)][Bip][Bip][Sar]PDRVPVRLCG-NH2; thioether N-13): 50 to 200 nM.
On the same count and under the same terms, next, `CC(C)CC[C@@H]1NC(=O)CSC[C@@H](C(=O)NCC(N)=O)NC(=O)[C@H](CC(C)C)NC(=O)[C@H](CCCNC(=N)N)NC(=O)[C@H](C(C)C)NC(=O)[C@@H]2CCCN2C(=O)[C@H](C(C)C)NC(=O)[C@H](CCCNC(=N)N)NC(=O)[C@H](CC(=O)O)NC(=O)[C@@H]2CCCN2C(=O)CN(C)C(=O)[C@H](Cc2ccc(-c3ccccc3)cc2)NC(=O)[C@H](Cc2ccc(-c3ccccc3)cc2)NC1=O` [Example 28] ({CH2CO}-[hLeu][Bip][Bip][Sar]PDRVPVRLCG-NH2; thioether N-13): 200 to 2000 nM; `CC(C)C[C@@H]1NC(=O)[C@H](CCCNC(=N)N)NC(=O)[C@H](C(C)C)NC(=O)[C@@H]2CCCN2C(=O)[C@H](C(C)C)NC(=O)[C@H](CCCNC(=N)N)NC(=O)[C@H](CC(=O)O)NC(=O)[C@@H]2CCCN2C(=O)CN(C)C(=O)[C@H](Cc2ccc(-c3ccccc3)cc2)NC(=O)[C@H](Cc2ccc(-c3ccccc3)cc2)NC(=O)[C@H](Cc2cccnc2)NC(=O)CSC[C@@H](C(=O)NCC(N)=O)NC1=O` [Example 29] ({CH2CO}-[3Pal][Bip][Bip][Sar]PDRVPVRLCG-NH2; thioether N-13): 200 to 2000 nM; `CC(C)C[C@@H]1NC(=O)[C@H](CCCNC(=N)N)NC(=O)[C@H](C(C)C)NC(=O)[C@@H]2CCCN2C(=O)[C@H](C(C)C)NC(=O)[C@H](CCCNC(=N)N)NC(=O)[C@H](CC(=O)O)NC(=O)[C@@H]2CCCN2C(=O)CN(C)C(=O)[C@H](Cc2ccc(-c3ccccc3)cc2)NC(=O)[C@H](Cc2ccc(-c3ccccc3)cc2)NC(=O)[C@H](Cc2ccccn2)NC(=O)CSC[C@@H](C(=O)NCC(N)=O)NC1=O` [Example 30] ({CH2CO}-[2Pal][Bip][Bip][Sar]PDRVPVRLCG-NH2; thioether N-13): 200 to 2000 nM.
Regarding `CC(C)C[C@@H]1NC(=O)[C@H](CCCNC(=N)N)NC(=O)[C@H](C(C)C)NC(=O)[C@@H]2CCCN2C(=O)[C@H](C(C)C)NC(=O)[C@H](CCCNC(=N)N)NC(=O)[C@H](CC(=O)O)NC(=O)[C@@H]2CCCN2C(=O)CN(C)C(=O)[C@H](Cc2ccc(-c3ccccc3)cc2)NC(=O)[C@H](Cc2ccc(-c3ccccc3)cc2)NC(=O)[C@H](Cc2c(F)cc(F)cc2F)NC(=O)CSC[C@@H](C(=O)NCC(N)=O)NC1=O` [Example 31] ({CH2CO}-[X59][Bip][Bip][Sar]PDRVPVRLCG-NH2; thioether N-13), the IC50 fell in the range of 200 to 2000 nM.
Still for that read-out and setting: next, `CC(C)C[C@@H]1NC(=O)[C@H](CCCNC(=N)N)NC(=O)[C@H](C(C)C)NC(=O)[C@@H]2CCCN2C(=O)[C@H](C(C)C)NC(=O)[C@H](CCCNC(=N)N)NC(=O)[C@H](CC(=O)O)NC(=O)[C@@H]2CCCN2C(=O)CN(C)C(=O)[C@H](Cc2ccc(-c3ccccc3)cc2)NC(=O)[C@H](Cc2ccc(-c3ccccc3)cc2)NC(=O)[C@H](CN2CCOCC2)NC(=O)CSC[C@@H](C(=O)NCC(N)=O)NC1=O` [Example 32] ({CH2CO}-[Ala(morpholin-4-yl)][Bip][Bip][Sar]PDRVPVRLCG-NH2; thioether N-13): 50 to 200 nM.
The same measure, in the same setting: next, `C#CCC[C@@H]1NC(=O)[C@H](CCCNC(=N)N)NC(=O)[C@H](CC(=O)O)NC(=O)[C@@H]2CCCN2C(=O)CN(C)C(=O)[C@H](Cc2ccc(-c3ccccc3)cc2)NC(=O)[C@H](Cc2ccc(-c3ccccc3)cc2)NC(=O)[C@H](Cc2ccccc2)NC(=O)CSC[C@@H](C(=O)NCC(N)=O)NC(=O)[C@H](CC(C)C)NC(=O)[C@H](CCCNC(=N)N)NC(=O)[C@H](C(C)C)NC(=O)[C@@H]2CCCN2C1=O` [Example 33] ({CH2CO}-F[Bip][Bip][Sar]PDR[Hpra]PVRLCG-NH2; thioether N-13): 200 to 2000 nM; `CC(C)C[C@@H]1NC(=O)[C@H](Cc2ccccn2)NC(=O)[C@H](C(C)C)NC(=O)[C@@H]2CCCN2C(=O)[C@H](C(C)C)NC(=O)[C@H](CCCNC(=N)N)NC(=O)[C@H](CC(=O)O)NC(=O)[C@@H]2CCCN2C(=O)CN(C)C(=O)[C@H](Cc2ccc(-c3ccccc3)cc2)NC(=O)[C@H](Cc2ccc(-c3ccccc3)cc2)NC(=O)[C@H](Cc2ccccc2)NC(=O)CSC[C@@H](C(=O)NCC(N)=O)NC1=O` [Example 34] ({CH2CO}-F[Bip][Bip][Sar]PDRVPV[2Pal]LCG-NH2; thioether N-13): 200 to 2000 nM; `CC(C)C[C@@H]1NC(=O)[C@H](CCCNC(=N)N)NC(=O)[C@H](C(C)C)NC(=O)[C@@H]2CCCN2C(=O)[C@H](C(C)C)NC(=O)[C@H](CCCNC(=N)N)NC(=O)[C@H](CC(=O)O)NC(=O)[C@@H]2CCCN2C(=O)CN(C)C(=O)[C@H](Cc2ccc(-c3ccccc3)cc2)NC(=O)[C@H](Cc2ccc(-c3ccccc3)cc2)NC(=O)[C@H](Cc2cccc(C(N)=O)c2)NC(=O)CSC[C@@H](C(=O)NCC(N)=O)NC1=O` [Example 35] ({CH2CO}-[Phe(3-CONH2)][Bip][Bip][Sar]PDRVPVRLCG-NH2; thioether N-13): 200 to 2000 nM.
Regarding `CC(C)C[C@@H]1NC(=O)[C@H](Cc2ccc(CN)cc2)NC(=O)[C@H](C(C)C)NC(=O)[C@@H]2CCCN2C(=O)[C@H](C(C)C)NC(=O)[C@H](CCCNC(=N)N)NC(=O)[C@H](CC(=O)O)NC(=O)[C@@H]2CCCN2C(=O)CN(C)C(=O)[C@H](Cc2ccc(-c3ccccc3)cc2)NC(=O)[C@H](Cc2ccc(-c3ccccc3)cc2)NC(=O)[C@H](Cc2ccccc2)NC(=O)CSC[C@@H](C(=O)NCC(N)=O)NC1=O` [Example 36] ({CH2CO}-F[Bip][Bip][Sar]PDRVPV[Phe(4-CH2NH2)]LCG-NH2; thioether N-13), the IC50 lay within 200 to 2000 nM.
